Experimental data reported in publication PMC11242382, “Rapid Screening of Chemical Components in Salvia miltiorrhiza with the Potential to Inhibit Skin Inflammation” (International Journal of Molecular Sciences, 2024).

How the values were obtained:
Format in all cases: biochemical
HAase [1] = target: T1, HAase (Bos taurus, UniProt Q2YDK3); assay: Combined effects of SAB and RA on HAase (median-effect equation, combination index); settings: for Fa (%): SAB-only group
T1 sequence (Q2YDK3 36-553): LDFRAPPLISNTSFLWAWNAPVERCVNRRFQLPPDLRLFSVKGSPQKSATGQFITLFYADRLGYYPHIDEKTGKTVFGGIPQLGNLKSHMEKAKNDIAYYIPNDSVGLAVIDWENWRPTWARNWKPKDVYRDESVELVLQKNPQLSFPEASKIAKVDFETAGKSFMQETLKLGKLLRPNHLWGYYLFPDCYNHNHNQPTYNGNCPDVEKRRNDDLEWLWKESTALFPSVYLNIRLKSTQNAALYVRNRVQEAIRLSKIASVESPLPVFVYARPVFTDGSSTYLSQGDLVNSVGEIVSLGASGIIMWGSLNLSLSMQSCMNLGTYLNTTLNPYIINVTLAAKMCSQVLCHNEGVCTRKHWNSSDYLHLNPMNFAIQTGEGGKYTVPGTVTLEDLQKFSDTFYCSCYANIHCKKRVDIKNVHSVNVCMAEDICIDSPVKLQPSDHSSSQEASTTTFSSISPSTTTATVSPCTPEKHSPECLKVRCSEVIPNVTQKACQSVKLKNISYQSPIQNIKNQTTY
Protocol: (§1) The inhibition assay of the ligands against HAase was performed, following the Elson–Morgan modified method, and the working concentration of the sample was determined to be 0.5 mg/mL [35, 36, 37]. The assays took place in 10 mL centrifuge tubes. Firstly, 0.5 mL of sample solution and 0.5 mL of HAase were added (500 U/mL) to the tube in a 37 °C water bath for 20 min. Then, 0.1 mL of CaCl2 (2.5 mol/L) solution was added to the tube in a 37 °C water bath for 20 min. Next, 0.5 mL of sodium hyaluronate solution (0.5 mg/mL) was added to the tube at 37 °C in a water bath for 40 min. Afterward, we added 0.5 mL of distilled water, 0.1 mL of NaOH solution, and 0.5 mL of acetylacetone (composed of 50 mL of Na2CO3 (1 M) and 3.5 mL of acetylacetone) to the tube. This mixture was kept in the 37 °C water bath for 15 min and then transferred to an ice bath for 10 min, followed by 10 min at room temperature. Afterward, 1 mL of P-DAB and 4.3 mL of ethanol were added to it. The absorbance was measured at 530 nm after allowing the solution to stand for 30 min. The HAase inhibition rate (R) was calculated using the following formula:(1) R=A0−A/A0×100% where A0 is the absorbance of the control group (without the sample, enzyme solution, and sodium hyaluronate as the drug control), and A is the absorbance of the sample group (with the sample, no enzyme solution, and sodium hyaluronate as the blank control); ascorbic acid was the positive control.
The Fa value for each group is Fa (%) = R* (where R* denotes the mean value of inhibition in the administered group). Neutralization graphs (y = log Fa/Fu, x = logD, and y = ax + b) and the neutralization of the two components in monotherapy and combination were calculated based on the neutralization equation Fa/Fu = (D/Dm)^m. In this equation, Fa is the drug effect, Fu = 1 − Fa, D is the drug concentration, Dm is the neutralization concentration, that is, the concentration of the drug when it exerts 50% of its effect, and m is the slope of the equation of the neutralization curve. Dose was calculated using (logDm = −b/a, a = m) and the corresponding parameters of the equation (slope m and correlation coefficient r, etc.). Then, the CI value of the combined effect was calculated according to the following formula:(2) CI=D1/Dx1+D2/Dx2 where D1 and D2 are the concentrations of each of the two drugs causing the x effect when combined, and Dx1 and Dx2 are the concentrations of each of the two drugs causing the x effect when used alone. […] The quantitative effect-relationship curves of the two drugs individually and after combination were plotted using GraphPad Prism V5.0, with the drug concentration as the horizontal coordinate and the Fa value as the vertical coordinate. The data of the combined action group were simulated using Compusyn V1.0 and the neutral effect equation. The Fa-CI curves were plotted using GraphPad Prism V5.0, with the simulated Fa on the horizontal axis and its corresponding CI value on the vertical axis. This comprehensive analysis aimed to thoroughly evaluate the effects of the 2 drugs following their combined action, based on the provided data.

HAase [2] = target: T1, HAase; assay: Enzyme kinetics study (Lineweaver–Burk plots); settings: for type of HAase inhibition: Lineweaver–Burk plots; for Kis: from Y-intercept of double inverse curve vs inhibitor concentration
Protocol: We conducted enzyme kinetic studies to explore the inhibitory patterns of the ligands of HAase, employing a method that was previously documented. Based on the earlier HAase inhibition assay, 5 different concentrations of ligands (0, 1/2 × IC50, 1 × IC50, 3/2 × IC50, and 2 × IC50) were reacted with 5 different concentrations of sodium hyaluronate (500, 750, 1000, 1250, and 1500 µM). The reaction rate was monitored within the initial 30 min post-initiation. Grouping the samples by concentration, we derived the corresponding regression equations to construct the Lineweaver–Burk diagram, with the reciprocal of the average reaction rate (1/V) on the ordinate and the reciprocal of the substrate concentration (1/[S]) on the abscissa. From this diagram, we extracted the reciprocal of the transverse intercept (Km) and longitudinal intercept (Vmax) to compute the values of the constants Ki and Kis.

HAase [3] = target: T1, HAase; assay: HAase inhibition assay (Elson–Morgan modified method)
Protocol: as §1, with “The HAase inhibition rate (R) was calculated using the following formula:(1) R=A0−A/A0×100% where A0 is the absorbance of the control group (without the sample, enzyme solution, and sodium hyaluronate as the drug control), and A is the absorbance of the sample group (with the sample, no enzyme solution, and sodium hyaluronate as the blank control); ascorbic acid was the positive control.” left out

Row | Compound | m (slope of the neutralization curve equation) (HAase [1]; median-effect equation) | type of HAase inhibition (HAase [2]) | Kis (HAase [2]) | Fa (%) (HAase [1]; 0.006 mg/mL) | Fa (%) (HAase [1]; 0.03 mg/mL) | Fa (%) (HAase [1]; 0.06 mg/mL) | Fa (%) (HAase [1]; 0.15 mg/mL) | Fa (%) (HAase [1]; 0.3 mg/mL) | Dm (median effective concentration) (HAase [1]; median-effect equation, concentration at 50% of effect) | IC50 against HAase (HAase [3]) | Inhibition Rate (%) against HAase (HAase [3]; sample concentration 0.5 mg/mL, mean ± SD (n = 3))
1 | O=C(/C=C/c1ccc(O)c(O)c1)O[C@H](Cc1ccc(O)c(O)c1)C(=O)O [RA, rosmarinic acid] | 0.6904 | mixed-type inhibitors | 4.60 µM |  |  |  |  |  |  |  | 
2 | salvianolic acid B [SAB] | 0.6928 | mixed-type inhibitors | 0.96 µM | 8.30% | 18.07% | 22.16% | 40.98% | 59.08% | 0.2424 mg/mL | 204.15 ± 1.08 µg/mL | 68.27 ± 0.71%
